Experimental data taken from patent US10441587B2, “Treatment of lung cancer with inhibitors of glutaminase” (Calithera Biosciences, Inc., priority 2015, dated 2019).

Legend:
H1568 (CALA) = experiment: Sensitivity of NSCLC cell line to CB-839; format: cell-based; settings: KRAS wt, no amp, EGFR wt, n 4
H2030 (CALA) = experiment: Sensitivity of NSCLC cell line to CB-839; format: cell-based; settings: KRAS G12C, no amp, EGFR wt, n 3
H838 (CALA) = experiment: Sensitivity of NSCLC cell line to CB-839; format: cell-based; settings: KRAS wt, AMP, EGFR wt, n 3
H2023 (CALA) = experiment: Sensitivity of NSCLC cell line to CB-839; format: cell-based; settings: KRAS wt, no amp, EGFR wt, n 3
H1437 (CALA) = experiment: Sensitivity of NSCLC cell line to CB-839; format: cell-based; settings: KRAS wt, no amp, EGFR wt, n 3
H661 (CALA) = experiment: Sensitivity of NSCLC cell line to CB-839; format: cell-based; settings: KRAS wt, AMP, EGFR wt, n 3
H2073 (CALA) = experiment: Sensitivity of NSCLC cell line to CB-839; format: cell-based; settings: KRAS wt, no amp, EGFR wt, n 3
H1650 (CALA) = experiment: Sensitivity of NSCLC cell line to CB-839; format: cell-based; settings: KRAS wt, no amp, EGFR exon 19 deletion, n 1
HCC827 (CALA) = experiment: Sensitivity of NSCLC cell line to CB-839; format: cell-based; settings: KRAS wt, no amp, EGFR exon 19 deletion, n 3
H226 (CALA) = experiment: Sensitivity of NSCLC cell line to CB-839; format: cell-based; settings: KRAS wt, no amp, EGFR wt, n 4
H1975 (CALA) = experiment: Sensitivity of NSCLC cell line to CB-839; format: cell-based; settings: KRAS wt, no amp, EGFR L858R/T790M, n 4
ChaGo-K1 (CALA) = experiment: Sensitivity of NSCLC cell line to CB-839; format: cell-based; settings: KRAS wt, no amp, EGFR wt, n 3
A549 (CALA) = experiment: Sensitivity of NSCLC cell line to CB-839; format: cell-based; settings: KRAS G12S, no amp, EGFR wt, n 2
H647 (CALA) = experiment: Sensitivity of NSCLC cell line to CB-839; format: cell-based; settings: KRAS G13D, no amp, EGFR wt, n 3
H23 (CALA) = experiment: Sensitivity of NSCLC cell line to CB-839; format: cell-based; settings: KRAS G12C, AMP, EGFR wt, n 4
H358 (CALA) = experiment: Sensitivity of NSCLC cell line to CB-839; format: cell-based; settings: KRAS G12C, no amp, EGFR wt, n 4
[1] = tested on: H2122 lung adenocarcinoma xenograft; experiment: Lung adenocarcinoma xenograft efficacy study; format: in vivo; settings: H2122 xenograft in scid/beige mice; 200 mg/kg orally BID for 23 days; vs vehicle
Procedure: Female scid/beige mice (n═20) age 6-8 weeks were implanted subcutaneously with 1×10^7 H2122 lung adenocarcinoma cells per mouse suspended in PBS. Mice were randomized into the following two groups of n=10 mice/group: 1) Vehicle control (25% Hydroxypropyl-β-cyclodextrin) and 2) Compound 670 dosed orally at 200 mg/kg (formulated at 20 mg/mL in 25% HP-β-CD). For both groups, dosing was initiated 24 hours post-implant and continued orally BID for 23 days. Tumors were measured with calipers three times per week and tumor volume calculated using the formula tumor volume (mm^3)=(a×b^2/2) where ‘b’ is the smallest diameter and ‘a’ is the largest perpendicular diameter. **P-value<0.01 (Two-sided T-test).

H2347 (CALA) = experiment: Sensitivity of NSCLC cell line to CB-839; format: cell-based; settings: KRAS L19F, no amp, EGFR wt, n 3
H1693 (CALA) = experiment: Sensitivity of NSCLC cell line to CB-839; format: cell-based; settings: KRAS wt, no amp, EGFR wt, n 3
[2] = tested on: non-small cell lung cancer cell lines exhibiting a KRAS mutation; experiment: Sensitivity of non-small cell lung cancer cell lines by mutation status; format: cell-based; settings: KRAS-mutant vs wild-type non-small cell lung cancer cell lines; arrested growth and/or cell death
H441 (CALA) = experiment: Sensitivity of NSCLC cell line to CB-839; format: cell-based; settings: KRAS G13V, AMP, EGFR wt, n 3
H1703 (CALA) = experiment: Sensitivity of NSCLC cell line to CB-839; format: cell-based; settings: KRAS wt, AMP, EGFR wt, n 4
H2122 (CALA) = experiment: Sensitivity of NSCLC cell line to CB-839; format: cell-based; settings: KRAS G12C, no amp, EGFR wt, n 5
H2085 (CALA) = experiment: Sensitivity of NSCLC cell line to CB-839; format: cell-based; settings: KRAS wt, no amp, EGFR no data, n 3
H1563 (CALA) = experiment: Sensitivity of NSCLC cell line to CB-839; format: cell-based; settings: KRAS wt, no amp, EGFR wt, n 4
H1299 (CALA) = experiment: Sensitivity of NSCLC cell line to CB-839; format: cell-based; settings: KRAS wt, no amp, EGFR wt, n 3

O=C(Cc1cccc(OC(F)(F)F)c1)Nc1ccc(CCCCc2nnc(NC(=O)Cc3ccccn3)s2)nn1 [compound 670]
Sensitivity to CB-839 average (H1568 (CALA)): −38
Sensitivity to CB-839 average (H2030 (CALA)): −30
Sensitivity to CB-839 average (H838 (CALA)): 82
Sensitivity to CB-839 average (H2023 (CALA)): −47
Sensitivity to CB-839 average (H1437 (CALA)): 8.33
Sensitivity to CB-839 average (H661 (CALA)): 1.33
Sensitivity to CB-839 average (H2073 (CALA)): 57.67
Sensitivity to CB-839 average (H1650 (CALA)): 19
Sensitivity to CB-839 average (HCC827 (CALA)): −9
Sensitivity to CB-839 average (H226 (CALA)): 38.75
Sensitivity to CB-839 average (H1975 (CALA)): 22.225
Sensitivity to CB-839 average (ChaGo-K1 (CALA)): 86
Sensitivity to CB-839 average (A549 (CALA)): −68.565
Sensitivity to CB-839 average (H647 (CALA)): 18.267
Sensitivity to CB-839 average (H23 (CALA)): −13
Sensitivity to CB-839 average (H358 (CALA)): −34
tumor size [1]: reduced tumor size
Sensitivity to CB-839 average (H2347 (CALA)): −14
Sensitivity to CB-839 average (H1693 (CALA)): 82.67
sensitivity to treatment versus wild-type cell lines [2]: more sensitive
Sensitivity to CB-839 average (H441 (CALA)): −2.67
Sensitivity to CB-839 average (H1703 (CALA)): −10
Sensitivity to CB-839 average (H2122 (CALA)): −28.637
Sensitivity to CB-839 average (H2085 (CALA)): 80.667
Sensitivity to CB-839 average (H1563 (CALA)): 61.5
Sensitivity to CB-839 average (H1299 (CALA)): 68.67
